Measured values taken from patent US20160302455A1, “Methods Of Producing An Antimicrobial Solution And Methods For Reducing Bacteria On Produce And/Or Minimizing Enzymatic Browning Of Produce” (priority 2015, published 2016).
Like-named read-outs stand apart in the source and are kept apart here. Ends that are not written are not given here.

Legend:
Salmonella spp. [1] = type: cell-based
[2] = tested on: Aerobic, mesophilic bacteria; type: cell-based
E. coli O157:H7 [3] = type: cell-based, Escherichia coli O157:H7
L. monocytogenes [4] = type: cell-based, Listeria monocytogenes
Salmonella spp. [5] = type: cell-based; remark: listed apart in the source
E. coli O157:H7 [6] = type: cell-based, Escherichia coli O157:H7; remark: listed apart in the source
L. monocytogenes [7] = type: cell-based, Listeria monocytogenes; remark: listed apart in the source
[8] = tested on: Aerobic mesophilic bacteria
[9] = tested on: Aerobic mesophilic bacteria; remark: listed apart in the source

Compound | Log reduction of Salmonella spp on cantaloupe rind surface (Salmonella spp. [1]) | Log reduction of aerobes on cantaloupe rind surface [2] | Log reduction of E. coli O157:H7 on cantaloupe rind surface (E. coli O157:H7 [3]) | Log reduction of L. monocytogenes on cantaloupe rind surface (L. monocytogenes [4]) | Average population of Salmonella inactivated (Salmonella spp. [5]) | Average population of E. coli O157:H7 inactivated (E. coli O157:H7 [6]) | Average population of L. monocytogenes inactivated (L. monocytogenes [7]) | Population of aerobic mesophilic bacteria, fresh-cut [8] | Population of aerobic mesophilic bacteria, fresh-cut [2] | Population of aerobic mesophilic bacteria, fresh-cut [9]
O=C(O)CC(O)(CC(=O)O)C(=O)O [Citric Acid (10 mM), Citric acid] | (1.8) log | (1.2) log | (1.5) log | (2.0) log |  |  |  |  |  | 
O=C(O)CN(CCN(CC(=O)O)CC(=O)O)CC(=O)O [EDTA (0.02 M), ethylenediaminetetraacetic acid] | (0.4) log | (0.4) log | (0.3) log | (0.2) log |  |  |  |  |  | 
C/C=C/C=C/C(=O)O [Sorbic acid (0.03%), Sorbic acid] | (2.0) log | (1.1) log | (1.8) log | (2.2) log |  |  |  |  |  | 
OO [hydrogen peroxide] | (3.0) log | (2.0) log | (2.9) log | (3.4) log | 5.1 log | 5.5 log | 5.0 log | 0.3 ± 0.02D Log10 CFU/g | 1.9 ± 0.10C Log10 CFU/g | 0.5 ± 0.10D Log10 CFU/g
Sodium Lactate [Sodium Lactate (2%)] | (1.5) log | (1.1) log | (1.4) log | (2.8) log |  |  |  |  |  | 
nisin (ITSISLCTPGCKTGALMGCNMKTATCHCSIHVSK; not fully specified (some residues, bridges); cysteine pairing not given here; UniProt P13068 24-57, looked up) [Nisin (30 mg; (~10 μg/ml)] |  | (1.2) log |  | (3.6) log |  |  |  |  |  | 
